Assay results as given in patent US20220332758A1, “PEPTIDE-BASED COMPOSITIONS AND METHODS FOR TREATING ALZHEIMER'S DISEASE” (Board of Regents, The Universityof Texas System, priority 2019, published 2022).
“Also recorded” adds a separate entry of the source.

Assays:
[1] = biological target: T1, latent 20S core proteasome, PGPH peptidase (Homo sapiens, UniProt P25787+P60900); assay: Post glutamyl peptide hydrolyzing (PGPH) peptidase activity of the core proteasome; assay type: biochemical
T1 construct: purified from erythrocytes; purchased Boston Biochem, Inc. or Enzo Life Sciences, Inc; host or cells: human erythrocytes
Experimental: (§1) Determination of Proteasome Activity. Human housekeeping core (20S) proteasome purified from erythrocytes was purchased from Boston Biochem, Inc. (Cambridge, Mass.) or from Enzo Life Sciences, Inc. (Farmingdale, N.Y.). Multiple batches of the proteasomes were used and performed reproducibly. The stock proteasome was diluted to 0.2 mg/mL working solution in “dilution buffer” (50 mM Tris/HCl, pH 8, 20% glycerol). The following model peptide substrates, releasing fluorescent 7-amino-4-methylcoumarin (AMC) reporter group after cleavage, were used: succinyl-LeuLeuValTyr-AMC (SEQ ID NO: 14) (for the ChT-L peptidase; SucLLVY-AMC; Bachem Bioscience Inc., Philadelphia, Pa.), butoxycarbonyl-LeuArgArg-AMC (T-L; Bachem Bioscience Inc., Philadelphia, Pa.) and carbobenzoxy-LeuLeuGlu-AMC (PGPH; Enzo Life Sciences Inc., Farmingdale, N.Y.). […] After mixing, the plate was transferred to a Fluoroskan Ascent plate reader (Thermo Fisher Scientific Inc., Waltham, Mass.) for 1 h (37° C.), with fluorescence readouts once per minute. […] The reaction rates were calculated from a linear segment of kinetic curves constructed from measurements in 1-min intervals. Reaction rates were calculated using a linear fit performed with the Slope Analyser and Enzyme Kinetics applications launched within Origin Pro 2019 (OriginLab Corporation, Northampton, Mass.). […]

Stability in human serum = assay type: in vitro ADME
[2] = biological target: T2, latent 20S core proteasome, T-L peptidase (Homo sapiens, UniProt P25787+P60900); assay: Trypsin-like (T-L) peptidase activity of the core proteasome; assay type: biochemical
T2 construct: purified from erythrocytes; purchased Boston Biochem, Inc. or Enzo Life Sciences, Inc; host or cells: human erythrocytes
Experimental: as §1

[3] = biological target: T3, proteasome activity in W^1118 flies (Drosophila melanogaster, UniProt P40301+Q9XZJ4); assay: Proteasome activity in flies fed the compounds; assay type: in vivo; details: fed for 10 days
T3 construct: from tissue
Experimental: Fly Lines and Strain Maintenance. UAS-ProsBeta5 (Staudt, N. et al. PLoS Genet 1, e55, doi:10.1371/journal.pgen.0010055 (2005)) and Elav-GS-GAL4; UAS-hAPP; UAS-hBACE1 (56756) stocks were obtained from the Bloomington Drosophila Stock Center (NIH P40OD018537). The lines were maintained on agar-cornmeal-dextrose-yeast growth media (Ren, C., Finkel, S. E. & Tower, J. Exp Gerontol 44, 228-235, doi:10.1016/j.exger.2008.10.002 (2009)) in a humidified 24° C. incubator with 12:12-hour light:dark cycle. The crosses were set up with female virgins of the respective GAL4 driver line and male UAS-ProsBeta5 or W^1118 flies. Progeny were collected within 48 hours of eclosion and allowed to mate on 10% sugar/yeast (SY10) media (Skorupa, D. A., et al. Aging Cell 7, 478-490, doi:10.1111/j.1474-9726.2008.00400.x (2008)) for another 48 hours. After this period, females were separated and sorted into sets of 25 flies per vial containing SY10 media supplemented either with 400 μM mifepristone (RU486) or ethanol vehicle, mixed directly into the food. 8 μM Blue Dye #1 was added to food containing RU486 for the purpose of identification. Carbon dioxide was used to briefly anesthetize flies for sorting. Flies were moved to vials of fresh media every two to three days.
Plate-based proteasome activity assay. […]

T3 sequence (Q9XZJ4 whole entry): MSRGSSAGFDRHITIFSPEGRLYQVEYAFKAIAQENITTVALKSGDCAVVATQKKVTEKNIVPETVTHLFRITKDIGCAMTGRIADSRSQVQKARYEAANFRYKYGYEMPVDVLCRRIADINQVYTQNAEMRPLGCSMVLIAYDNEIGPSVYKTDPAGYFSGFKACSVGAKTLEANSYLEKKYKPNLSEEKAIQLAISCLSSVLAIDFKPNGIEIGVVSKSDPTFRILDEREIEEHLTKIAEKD
T3 sequence (P40301 whole entry): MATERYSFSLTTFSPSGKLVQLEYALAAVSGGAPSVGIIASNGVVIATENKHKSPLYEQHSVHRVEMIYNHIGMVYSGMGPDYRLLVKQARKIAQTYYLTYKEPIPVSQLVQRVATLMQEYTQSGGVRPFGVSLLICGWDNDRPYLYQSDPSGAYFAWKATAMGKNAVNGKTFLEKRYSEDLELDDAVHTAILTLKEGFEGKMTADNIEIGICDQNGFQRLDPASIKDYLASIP

Compound: N=C(N)NCCCC(NC(=O)CN)C(=O)NC(CCCCN)C(=O)NC(CCCCN)C(=O)NC(CCCNC(=N)N)C(=O)NC(CCCNC(=N)N)C(=O)NC(CCC(N)=O)C(=O)N1Cc2ccccc2C[C@H]1C(=O)N1C(C(=O)NC(CCCNC(N)N)C(=O)N2CCCC2C(=O)NC(CO)C(=O)O)CC2CCCCC21 (some centres unmarked) [(5), GRKKRRQ-TOD-RPS]
- effect on PGPH activity [1]: weak inhibitory effects; also recorded: did not seem to significantly affect
- half-life (Stability in human serum): ~2 h
- effect on trypsin-like (T-L) activity [2]: weak inhibitory effects; also recorded: did not seem to significantly affect
- proteasome activity in flies [3]: enhance proteasome activity when fed to flies

Compound: NCCCCC(N)C(=O)NC(CCCCN)C(=O)NC(CCCCN)C(=O)Nc1cc(NC(=O)C(CCCCN)NC(=O)C(CCCCN)NC(=O)C(N)CCCCN)cc(C(=O)NC(CCCCN)C(=O)NC(CCCCN)C(=O)NC(CCCCN)C(=O)O)c1 (centres unmarked) [(8)]
- effect on PGPH activity [1]: weak inhibitory effects; also recorded: did not seem to significantly affect
- stability in serum (in words) (Stability in human serum): rapidly modified from triple-lysines to double-lysines
- effect on trypsin-like (T-L) activity [2]: weak inhibitory effects; also recorded: did not seem to significantly affect
- proteasome activity in flies [3]: enhance proteasome activity when fed to flies
